The test system of the test is LL29 cells (primary human fibroblasts derived from IPF patients) treated with TGF-β1, α-smooth muscle actin. Briefly: Inhibition of the fibrotic process: αSMA staining in TGF-β1 treated primary human fibroblasts from IPF patients (LL29 cells). The following applies: Fibroblast, 96 h; for EC50: LL29 cells treated with TGF-β1 (20 ng/mL), 4 days; for inhibition at 10 µM: LL29 cells treated with TGF-β1, 4 days, read-out: percent inhibition in brackets (given for EC50 >10 μM). The test is classed as cell-based. From the text:
Representative compounds were screened using primary human fibroblasts (derived from IPF patients) treated with TGF-β1 to determine their ability to inhibit the fibrotic process.
Human Fibroblast Cell Culture: Primary human fibroblasts derived from IPF patients (LL29 cells) [^1Xiaoqiu Liu, et.al., “Fibrotic Lung Fibroblasts Show Blunted Inhibition by cAMP Due to Deficient cAMP Response Element-Binding Protein Phosphorylation”, Journal of Pharmacology and Experimental Therapeutics (2005), 315(2), 678-687; ^2Watts, K. L., et.al., “RhoA signaling modulates cyclin D1 expression in human lung fibroblasts; implications for idiopathic pulmonary fibrosis”, Respiratory Research (2006), 7(1), 88] were obtained from American Type Culture Collection (ATCC) and expanded in F12 medium supplemented with 15% Fetal Bovine Serum and Penicillin/Streptomycin.
Compound Screening: Each compound was dissolved in DMSO as a 10 mM stock and used to prepare compound source plates. […] LL29 cells are plated at 1,500 cells/well in 80 μL/well F12 medium supplemented with 1% Fetal Bovine Serum. One hour after addition of the cells, TGF-β1 (Peprotech; 20 ng/mL) was added to the plates to induce fibrosis (ref. 1 and 2 above). Wells treated with TGF-β1 and containing DMSO were used as controls. Cells were incubated at 37° C. and 5% CO2 for 4 days. Following incubation for 4 days, SYTOX green nucleic acid stain (Life Technologies [Thermo Fisher Scientific]) was added to the wells at a final concentration of 1 μM and incubated at room temperature for 30 min. Cells were then fixed using 4% formaldehyde (Electron Microscopy Sciences), washed 3 times with PBS followed by blocking and permeabilization using 3% Bovine Serum Albumin (BSA; Sigma) and 0.3% Triton X-100 (Sigma) in PBS. Cells were then stained with antibody specific to α-smooth muscle actin (αSMA; Abcam) (ref. 1 and 2 above) in 3% Bovine Serum Albumin (BSA; Sigma) and 0.3% Triton X-100 (Sigma) in PBS, and incubated overnight at 4° C. Cells were then washed 3 times with PBS, followed by incubation with Alexa Flor-647 conjugated secondary antibody (Life Technologies [Thermo Fisher Scientific]) and DAPI at room temperature for 1 hour. Cells were then washed 3 times with PBS and plates were sealed for imaging. αSMA staining was imaged by excitation at 630 nm and emission at 665 nm and quantified using the Compartmental Analysis program on the CellInsight CX5 (Thermo Scientific). Dead or apoptotic cells were excluded from analysis based on positive SYTOX green staining. % of total cells positive for αSMA were counted in each well and normalized to the average of 11 wells treated with TGF-β1 on the same plate using Dotmatics' Studies Software. The normalized averages (fold change over untreated) of 3 replicate wells for each compound concentration were used to create dose-responses curves and EC50 values were calculated using non-linear regression curve fit in the Dotmatics' Studies Software. For EC50 of >10 μM, the percent inhibition at 10 μM is provided.

For `CN(C)CCOc1cncc(-c2ccc3[nH]nc(-c4nc5c(-c6cccs6)cncc5[nH]4)c3n2)c1` [Compound 663, N,N-Dimethyl-2-((5-(3-(7-(thiophen-2-yl)-3H-imidazo[4,5-c]pyridin-2-yl)-1H-pyrazolo[4,3-b]pyridin-5-yl)pyridin-3-yl)oxy)ethan-1-amine], the EC50 (usually the concentration that produces a half-maximal response) worked out at 1.22 µM.
In the case of `CS(=O)(=O)NCc1cc(F)cc(-c2cncc3[nH]c(-c4n[nH]c5ccc(-c6cncc(NC(=O)CC7CCNCC7)c6)nc45)nc23)c1` [Compound 725, N-(5-(3-(7-(3-Fluoro-5-(methylsulfonamidomethyl)phenyl)-3H-imidazo[4,5-c]pyridin-2-yl)-1H-pyrazolo[4,3-b]pyridin-5-yl)pyridin-3-yl)-2-(piperidin-4-yl)acetamide], the EC50 was over 10 µM and the inhibition (as a rule, the percentage by which the read-out fell short of the control) at 10 µM came out at 40.9%.
On the same counts, the results for `c1csc(-c2cncc3[nH]c(-c4n[nH]c5ccc(-c6ccncc6)nc45)nc23)c1` [Compound 326, 5-(Pyridin-4-yl)-3-(7-(thiophen-2-yl)-3H-imidazo[4,5-c]pyridin-2-yl)-1H-pyrazolo[4,3-b]pyridine] are over 10 µM and 26.6%.
`COc1cccc(-c2cncc3[nH]c(-c4n[nH]c5ccc(-c6cncc(OC7CCNCC7)c6)nc45)nc23)c1` [Compound 980, 3-(7-(3-Methoxylphenyl)-3H-imidazo[4,5-c]pyridin-2-yl)-5-(5-(piperidin-4-yloxy)pyridin-3-yl)-1H-pyrazolo[4,3-b]pyridine] came in with an EC50 of 2.72 µM.
As for `CN(C)CCNc1cc(F)cc(-c2cncc3[nH]c(-c4n[nH]c5ccc(-c6cncc(OCCN7CCCC7)c6)nc45)nc23)c1` [Compound 742, N^1-(3-Fluoro-5-(2-(5-(5-(2-(pyrrolidin-1-yl)ethoxy)pyridin-3-yl)-1H-pyrazolo[4,3-b]pyridin-3-yl)-3H-imidazo[4,5-c]pyridin-7-yl)phenyl)-N^2,N^2-dimethylethane-1,2-diamine], the EC50 was over 10 µM and the inhibition at 10 µM is 0%.
Consider `NC1CN(c2cncc(-c3ccc4[nH]nc(-c5nc6c(-c7ccc(Cl)s7)cncc6[nH]5)c4n3)n2)C1` [Compound 1023, 1-(6-(3-(7-(5-Chlorothiophen-2-yl)-3H-imidazo[4,5-c]pyridin-2-yl)-1H-pyrazolo[4,3-b]pyridin-5-yl)pyrazin-2-yl)azetidin-3-amine], for which the midpoint of the response, the EC50, lay at 6.19 µM.
Turning to `O=C(Nc1cncc(-c2ccc3[nH]nc(-c4nc5c(-c6cccs6)cncc5[nH]4)c3n2)c1)C1CC1` [Compound 328, N-(5-(3-(7-(Thiophen-2-yl)-3H-imidazo[4,5-c]pyridin-2-yl)-1H-pyrazolo[4,3-b]pyridin-5-yl)pyridin-3-yl)cyclopropanecarboxamide], the EC50 was over 10 µM and the inhibition at 10 µM worked out at 0%.
On the same counts, the results for `CC(C)(C)CC(=O)Nc1cncc(-c2ccc3[nH]nc(-c4nc5c(-c6ccccc6F)cncc5[nH]4)c3n2)c1` [Compound 72, N-(5-(3-(7-(2-fluorophenyl)-3H-imidazo[4,5-c]pyridin-2-yl)-1H-pyrazolo[4,3-b]pyridin-5-yl)pyridin-3-yl)-3,3-dimethylbutanamide] are over 10 µM and 0%.
The matching figures for `COc1cccc(-c2cncc3[nH]c(-c4n[nH]c5ccc(-c6cncc(NC(=O)CC(C)(C)C)c6)nc45)nc23)c1` [Compound 961, N-(5-(3-(7-(3-methoxylphenyl)-3H-imidazo[4,5-c]pyridin-2-yl)-1H-pyrazolo[4,3-b]pyridin-5-yl)pyridin-3-yl)-3,3-dimethylbutanamide]: over 10 µM and 0%.
As for `O=C(Nc1cncc(-c2ccc3[nH]nc(-c4nc5c(-c6ccccn6)cncc5[nH]4)c3n2)c1)c1ccccc1` [Compound 151, N-(5-(3-(7-(Pyridin-2-yl)-3H-imidazo[4,5-c]pyridin-2-yl)-1H-pyrazolo[4,3-b]pyridin-5-yl)pyridin-3-yl)benzamide], the EC50 is over 10 µM and the inhibition at 10 µM came out at 38.8%.
On to `COc1cccc(-c2cncc3[nH]c(-c4n[nH]c5ccc(-c6cncc(O)c6)nc45)nc23)c1` [Compound 985, 5-(3-(7-(3-Methoxylphenyl)-3H-imidazo[4,5-c]pyridin-2-yl)-1H-pyrazolo[4,3-b]pyridin-5-yl)pyridin-3-ol], for which the EC50 was 2.35 µM.
As for `Cn1cc(-c2ccc3[nH]nc(-c4nc5c(-c6cccs6)cncc5[nH]4)c3n2)cn1` [Compound 656, 5-(1-Methyl-1H-pyrazol-4-yl)-3-(7-(thiophen-2-yl)-3H-imidazo[4,5-c]pyridin-2-yl)-1H-pyrazolo[4,3-b]pyridine], the EC50 was over 10 µM and the inhibition at 10 µM amounted to 46.4%.
As for `CS(=O)(=O)NCc1cc(F)cc(-c2cncc3[nH]c(-c4n[nH]c5ccc(-c6cncnc6)nc45)nc23)c1` [Compound 475, N-(3-Fluoro-5-(2-(5-(pyrimidin-5-yl)-1H-pyrazolo[4,3-b]pyridin-3-yl)-3H-imidazo[4,5-c]pyridin-7-yl)benzyl)methanesulfonamide], the EC50 was 2.44 µM.
Same read-out and setting: the value for `CS(=O)(=O)NCc1cc(F)cc(-c2cncc3[nH]c(-c4n[nH]c5ccc(-c6cncc(CNCc7ccccc7)c6)nc45)nc23)c1` [Compound 472, N-(3-(2-(5-(5-((Benzylamino)methyl)pyridin-3-yl)-1H-pyrazolo[4,3-b]pyridin-3-yl)-3H-imidazo[4,5-c]pyridin-7-yl)-5-fluorobenzyl)methanesulfonamide] was 7.27 µM.
`O=C(Nc1cncc(-c2ccc3[nH]nc(-c4nc5c(-c6ccncc6)cncc5[nH]4)c3n2)c1)C1CCCCC1` [Compound 135, N-(5-(3-(7-(pyridin-4-yl)-3H-imidazo[4,5-c]pyridin-2-yl)-1H-pyrazolo[4,3-b]pyridin-5-yl)pyridin-3-yl)cyclohexanecarboxamide]: the EC50 is over 10 µM and the inhibition at 10 µM was 0%.
In the case of `c1ccc(COc2cncc(-c3ccc4[nH]nc(-c5nc6c(-c7ccncc7)cncc6[nH]5)c4n3)c2)cc1` [Compound 554, 5-(5-(Benzyloxy)pyridin-3-yl)-3-(7-(pyridin-4-yl)-3H-imidazo[4,5-c]pyridin-2-yl)-1H-pyrazolo[4,3-b]pyridine], the EC50 is 1.03 µM.
`COc1cccc(-c2cncc3[nH]c(-c4n[nH]c5ccc(-c6cn[nH]c6)nc45)nc23)c1` [Compound 975, 3-(7-(3-Methoxylphenyl)-3H-imidazo[4,5-c]pyridin-2-yl)-5-(1H-pyrazol-4-yl)-1H-pyrazolo[4,3-b]pyridine]: the EC50 was over 10 µM and the inhibition at 10 µM was found to be 43.2%.
On the same counts, the results for `Cn1cc(-c2ccc3[nH]nc(-c4nc5c(N6CCCCC6)cncc5[nH]4)c3n2)c(CO)n1` [Compound 1089, (1-Methyl-4-(3-(7-(piperidin-1-yl)-3H-imidazo[4,5-c]pyridin-2-yl)-1H-pyrazolo[4,3-b]pyridin-5-yl)-1H-pyrazol-3-yl)methanol] are over 10 µM and 36%.
Turning to `c1cc(-c2ccc3[nH]nc(-c4nc5c(-c6ccncc6)cncc5[nH]4)c3n2)ccn1` [Compound 130, 5-(pyridin-4-yl)-3-(7-(pyridin-4-yl)-3H-imidazo[4,5-c]pyridin-2-yl)-1H-pyrazolo[4,3-b]pyridine], the EC50 is over 10 µM and the inhibition at 10 µM worked out at 11%.
The molecule `Cn1cc(-c2ccc3[nH]nc(-c4nc5c(-c6ccc7c(c6)OCO7)cncc5[nH]4)c3n2)c(CO)n1` [Compound 1106, (4-(3-(7-(Benzo[d][1,3]dioxol-5-yl)-3H-imidazo[4,5-c]pyridin-2-yl)-1H-pyrazolo[4,3-b]pyridin-5-yl)-1-methyl-1H-pyrazol-3-yl)methanol] gave an EC50 of 2.42 µM.
For `CS(=O)(=O)NCc1cc(F)cc(-c2cncc3[nH]c(-c4n[nH]c5ccc(-c6cncc(NC(=O)c7ccccc7)c6)nc45)nc23)c1` [Compound 459, N-(5-(3-(7-(3-Fluoro-5-(methylsulfonamidomethyl)phenyl)-3H-imidazo[4,5-c]pyridin-2-yl)-1H-pyrazolo[4,3-b]pyridin-5-yl)pyridin-3-yl)benzamide], the EC50 was over 10 µM and the inhibition at 10 µM stood at 0%.

The record behind these values is patent US10188634B2, “3-(3H-imidazo[4,5-C]pyridin-2-yl)-1 H-pyrazolo[4,3-B]pyridines and therapeutic uses thereof” (Samumed, LLC, priority 2015, dated 2019).
